Data as given in US20220298213A1, “IN VIVO ENGINEERED CEREBLON PROTEIN” (Vividion Therapeutics, Inc., priority 2018, published 2022).
Where two headings read alike, the source gives them in different places. Each block holds one molecule with its values, some of them ahead of it.

How the values were obtained:
Type in all cases: binding
[1] = test system: PRTN_I; experiment: Inhibition of probe labeling at screening concentration (Table 1); conditions: 500 μM
Description: (§1) Cells were resuspended in cold PBS on ice and sonicated with a probe sonicator to achieve lysis. 200 μL of lysate containing 5 mg/ml proteome was treated with 2 μL of 100× compound stock in a 2-mL deep-well plate. The treated lysate was subsequently incubate at 25° C. for 1 hr with shaking at 600 rpm. The treated lysate was further incubated with 2 μL of 10 mM desthiobiotin iodoacetamide probe at 25° C. for 1 hr with shaking at 600 rpm. Next, the lysate was further treat with 20 μL of solution of PBS containing 11 mM MgSO4 and 2.5% Turbonuclease stock and incubated at 25° C. for 20 minutes with shaking at 600 rpm. 1.7 mL ice-cold acetone was added to each well and incubated at −20° C. for 2 hr, followed by max speed (4200 rpm) spin for 45 min. Acetone was then decanted and the plates were blotted to remove acetone. The plates were then dried in open air for 20 minutes. After drying, the plates were then covered with foil seal and stored at −80° C. overnight.

[2] = test system: PRTN_J; experiment: as above; conditions: 500 μM
Description: as §1

[3] = test system: PRTN_G; experiment: as above; conditions: 500 μM
Description: as §1

[4] = test system: PRTN_E; experiment: as above; conditions: 500 μM
Description: as §1

[5] = test system: PRTN_C; experiment: as above; conditions: 500 μM
Description: as §1

[6] = test system: PRTN_F; experiment: as above; conditions: 500 μM
Description: as §1

[7] = test system: PRTN_D; experiment: as above; conditions: 500 μM
Description: as §1

[8] = test system: PRTN_B; experiment: as above; conditions: 500 μM
Description: as §1

[9] = test system: PRTN_A; experiment: as above; conditions: 500 μM
Description: as §1

[10] = test system: PRTN_H; experiment: as above; conditions: 500 μM
Description: as §1

[11] = test system: PRTN_K; experiment: as above; conditions: 500 μM
Description: as §1

[12] = biological target: CRBN-287 (Homo sapiens, UniProt Q96SW2); experiment: as above; design: endogenous in cells; host or cells: cell lysate; conditions: native folded protein, read-out: Percentage inhibition of probe labeling, CRBN_287
CRBN-287, sequence (Q96SW2 whole entry): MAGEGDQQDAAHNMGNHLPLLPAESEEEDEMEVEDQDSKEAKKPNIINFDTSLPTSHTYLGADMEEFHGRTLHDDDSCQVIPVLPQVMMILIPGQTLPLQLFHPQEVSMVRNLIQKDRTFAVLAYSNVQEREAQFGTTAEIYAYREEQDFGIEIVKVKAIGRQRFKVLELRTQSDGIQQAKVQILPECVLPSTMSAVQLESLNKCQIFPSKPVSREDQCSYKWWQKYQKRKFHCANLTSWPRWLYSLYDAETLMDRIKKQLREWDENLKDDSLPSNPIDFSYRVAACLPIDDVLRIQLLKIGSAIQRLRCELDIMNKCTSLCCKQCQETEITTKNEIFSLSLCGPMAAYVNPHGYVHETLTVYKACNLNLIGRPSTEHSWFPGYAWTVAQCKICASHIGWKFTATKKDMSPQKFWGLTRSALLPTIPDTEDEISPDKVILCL
Description: as §1

[13] = biological target: CRBN-318 (Homo sapiens, UniProt Q96SW2); experiment: as above; design: endogenous in cells; host or cells: cell lysate; conditions: native folded protein, read-out: Percentage inhibition of probe labeling, CRBN_318
CRBN-318, sequence (Q96SW2 whole entry): as above
Description: as §1

[14] = biological target: T1, CRBN Cys287 (Homo sapiens, UniProt Q96SW2); experiment: Inhibition of iodoacetamide probe labeling of CRBN cysteines, cell lysate (Table 3A)
T1 construct: endogenous in cells
T1 sequence (Q96SW2 whole entry): as above
Description: (§2) “X@Y” means that x % inhibition of iodoacetamide probe labeling was observed by treatment of cell lysate with the give compound in each row of the table for 1 h at a concentration of y micromolar. There was consistently high inhibition at C318 in addition to C287, which can be attributed to an allosteric inhibition.

[15] = biological target: T2, CRBN Cys318 (Homo sapiens, UniProt Q96SW2); experiment: as above
T2 construct: endogenous in cells
T2 sequence (Q96SW2 whole entry): as above
Description: as §2

[16] = biological target: T3, CRBN Cys188 (Homo sapiens, UniProt Q96SW2); experiment: as above
T3 construct: endogenous in cells
T3 sequence (Q96SW2 whole entry): as above
Description: as §2

[17] = biological target: T4, CRBN Cys366 (Homo sapiens, UniProt Q96SW2); experiment: as above; conditions: 7.8 micromolar, cell lysate, 1 h
T4 construct: endogenous in cells
T4 sequence (Q96SW2 whole entry): as above
Description: as §2

[18] = biological target: T5, CRBN Cys219 (Homo sapiens, UniProt Q96SW2); experiment: as above
T5 construct: endogenous in cells
T5 sequence (Q96SW2 whole entry): as above
Description: as §2

[19] = biological target: T6, CRBN Cys234 (Homo sapiens, UniProt Q96SW2); experiment: as above; conditions: cell lysate, 1 h
T6 construct: endogenous in cells
T6 sequence (Q96SW2 whole entry): as above
Description: as §2

[20] = biological target: T7, CRBN Cys205 (Homo sapiens, UniProt Q96SW2); experiment: as above; conditions: cell lysate, 1 h
T7 construct: endogenous in cells
T7 sequence (Q96SW2 whole entry): as above
Description: as §2

[21] = 50 micromolar, cell lysate, 1 h
[22] = read-out: % inhibition of iodoacetamide probe labeling, Cys287
[23] = 0.12 micromolar, cell lysate, 1 h
[24] = 7.8 micromolar, cell lysate, 1 h
[25] = 2.0 micromolar, cell lysate, 1 h

inhibition at 500 µM [12]: 94%
inhibition at 500 µM [13]: 94%
SMILES: C=CC(=O)N1CCC(Oc2cc(C)cc(-c3ccccc3OC)c2)CC1
Percentage inhibition of probe labeling, PRTN_I [1]: 7%
Percentage inhibition of probe labeling, PRTN_J [2]: 6%
Percentage inhibition of probe labeling, PRTN_G [3]: 13%
Percentage inhibition of probe labeling, PRTN_E [4]: 11%
Percentage inhibition of probe labeling, PRTN_C [5]: 18%
Percentage inhibition of probe labeling, PRTN_F [6]: 6%
Percentage inhibition of probe labeling, PRTN_D [7]: 9%
Percentage inhibition of probe labeling, PRTN_B [8]: 2%
Percentage inhibition of probe labeling, PRTN_A [9]: 7%
Percentage inhibition of probe labeling, PRTN_H [10]: 9%
Percentage inhibition of probe labeling, PRTN_K [11]: 13%

inhibition at 5 µM ([14]; 5 micromolar, cell lysate, 1 h): 40%
inhibition at 50 µM [14, 21]: 90%
inhibition at 500 µM [14, 22]: 97%
inhibition at 5 µM ([15]; 5 micromolar, cell lysate, 1 h): 43%
inhibition at 50 µM [15, 21]: 86%
inhibition at 500 µM ([15]; read-out: % inhibition of iodoacetamide probe labeling, Cys318, 500 micromolar, cell lysate, 1 h): 95%
SMILES: COc1ccccc1-c1cc(C#N)cc(OC2CCN(C(=O)/C=C/CN(C)C)CC2)c1 [Al]

inhibition at 0.12 µM [14, 23]: 70%
inhibition at 2 µM ([14]; 2.0 micromolar, cell lysate, 1 h, read-out: % inhibition of iodoacetamide probe labeling, Cys287): 93%
inhibition at 7.8 µM [14, 24]: 96%
inhibition at 31.2 µM ([14]; 31.2 micromolar, cell lysate, 1 h, read-out: % inhibition of iodoacetamide probe labeling, Cys287): 98%
inhibition at 125 µM ([14]; 125 micromolar, cell lysate, 1 h, read-out: % inhibition of iodoacetamide probe labeling, Cys287): 99%
inhibition at 500 µM ([14]; 500 micromolar, cell lysate, 1 h, read-out: % inhibition of iodoacetamide probe labeling, Cys287): 99%
inhibition at 0.49 µM [14, 22]: 83%
inhibition at 2 µM [16, 25]: 22%
inhibition at 7.8 µM [16, 24]: 13%
inhibition at 31.2 µM ([16]; 31.2 micromolar, cell lysate, 1 h): 13%
inhibition at 125 µM ([16]; 125 micromolar, cell lysate, 1 h): 7%
inhibition at 0.49 µM ([16]; read-out: % inhibition of iodoacetamide probe labeling, Cys188): 17%
inhibition at 7.8 µM [17]: -22%
inhibition at 0.49 µM ([18]; 0.49 micromolar, cell lysate, 1 h): 17%
inhibition at 7.8 µM [18, 24]: 13%
inhibition at 125 µM ([18]; 125 micromolar, cell lysate, 1 h, read-out: % inhibition of iodoacetamide probe labeling, Cys219): 25%
inhibition at 500 µM ([18]; 500 micromolar, cell lysate, 1 h, read-out: % inhibition of iodoacetamide probe labeling, Cys219): 13%
inhibition at 2 µM ([18]; read-out: % inhibition of iodoacetamide probe labeling, Cys219): 22%
inhibition at 2 µM ([19]; 2.0 micromolar): 19%
inhibition at 7.8 µM ([19]; 7.8 micromolar): 35%
inhibition at 31.2 µM ([19]; 31.2 micromolar, read-out: % inhibition of iodoacetamide probe labeling, Cys234): 37%
inhibition at 125 µM ([19]; 125 micromolar, read-out: % inhibition of iodoacetamide probe labeling, Cys234): 60%
inhibition at 500 µM ([19]; 500 micromolar, read-out: % inhibition of iodoacetamide probe labeling, Cys234): 25%
inhibition at 0.12 µM [15, 23]: 77%
inhibition at 2 µM [15, 25]: 85%
inhibition at 7.8 µM [15, 24]: 93%
inhibition at 31.2 µM ([15]; 31.2 micromolar, cell lysate, 1 h, read-out: % inhibition of iodoacetamide probe labeling, Cys318): 94%
inhibition at 125 µM ([15]; 125 micromolar, cell lysate, 1 h, read-out: % inhibition of iodoacetamide probe labeling, Cys318): 95%
inhibition at 500 µM ([15]; 500 micromolar, cell lysate, 1 h, read-out: % inhibition of iodoacetamide probe labeling, Cys318): 96%
inhibition at 0.49 µM ([15]; read-out: % inhibition of iodoacetamide probe labeling, Cys318, 0.49 micromolar, cell lysate, 1 h): 76%
inhibition at 2 µM ([20]; 2.0 micromolar): 19%
inhibition at 7.8 µM ([20]; 7.8 micromolar): 36%
inhibition at 31.2 µM ([20]; 31.2 micromolar, read-out: % inhibition of iodoacetamide probe labeling, Cys205): 29%
inhibition at 125 µM ([20]; 125 micromolar, read-out: % inhibition of iodoacetamide probe labeling, Cys205): 37%
inhibition at 500 µM ([20]; 500 micromolar, read-out: % inhibition of iodoacetamide probe labeling, Cys205): 31%
SMILES: COc1ccccc1-c1cc(OC2CCN(C(=O)/C(C#N)=C/C(C)C)CC2)cc(C(N)=O)c1 [Example A5]

inhibition at 500 µM [12]: 72%
inhibition at 500 µM [13]: 76%
SMILES: C=CC(=O)N1CCC(Oc2cc(C)cc(-c3ccccc3)c2)CC1
Percentage inhibition of probe labeling, PRTN_I [1]: 0%
Percentage inhibition of probe labeling, PRTN_J [2]: −2%
Percentage inhibition of probe labeling, PRTN_G [3]: −8%
Percentage inhibition of probe labeling, PRTN_E [4]: 2%
Percentage inhibition of probe labeling, PRTN_C [5]: 15%
Percentage inhibition of probe labeling, PRTN_F [6]: −12%
Percentage inhibition of probe labeling, PRTN_D [7]: 2%
Percentage inhibition of probe labeling, PRTN_B [8]: −1%
Percentage inhibition of probe labeling, PRTN_A [9]: 5%
Percentage inhibition of probe labeling, PRTN_H [10]: −5%
Percentage inhibition of probe labeling, PRTN_K [11]: 17%
